Source: patent publication US12466850B2, “Method for producing peptide compound” (priority 2019, dated 2025)

Assays:
[1] = Test Example 1: Evaluation of the solubility in an organic solvent (saturated solution, HPLC); assay type: physicochemical; settings: for amount of the compound dissolved in 100 g of organic solvent: per 100 g solvent, 20° C., saturated, stirred one hour or longer; for solubility as compared to the compound in Reference Synthesis Example 3: in toluene, cyclopentyl methyl ether, and ethyl acetate
Description: In the measurement of the solubility, the compounds obtained in Synthesis Examples 2 and 6 and Reference Synthesis Example 3 were used.
(§1) A test compound was dissolved in toluene, cyclopentyl methyl ether, or ethyl acetate so as to be saturated, and stirred at 20° C. for one hour or longer. The obtained solution was subjected to centrifugal filtration, and then the resultant filtrate was subjected to analysis under the below-shown conditions for measurement, determining an amount of the test compound dissolved.
(§2) • High performance liquid chromatography: HPLC-20A, manufactured by SHIMADZU Corporation • Column: XBridge C18 (2.5 μm, 4.6×100 mm) • Column oven temperature: 40° C. • Eluent: A=0.2 vol % aqueous solution of trifluoroacetic acid • B=0.2 vol % acetonitrile solution of trifluoroacetic acid • AB=50/50 (0 to 2 minutes), 50/50 to 0/100 (2 to 15 minutes), 0/100 (15 to 40 minutes) • Eluent flow rate: 1.0 mL/minute • Wavelength for detection: 210 nm [Results of Test]
The compounds in Synthesis Examples 2 and 6 were improved in the solubility in toluene, cyclopentyl methyl ether, and ethyl acetate, as compared to the compound in Reference Synthesis Example 3.

[2] = Test Example 2: Evaluation of the solubility in an organic solvent (HPLC); assay type: physicochemical; settings: for amount of the compound dissolved in 100 g of organic solvent: per 100 g solvent, 20° C., stirred one hour or longer
Description: In the measurement of the solubility, the compound obtained in Synthesis Example 8 was used.
as §1, with “acetate,” for “acetate so as to be saturated,”
as §2
The compound in Synthesis Example 8 was improved in the solubility in toluene, cyclopentyl methyl ether, and ethyl acetate, as compared to the compound in Reference Synthesis Example 3.

Row | SMILES | amount of the compound dissolved in 100 g of organic solvent ([1]; cyclopentyl methyl ether) [g] | amount of the compound dissolved in 100 g of organic solvent ([1]; ethyl acetate) [g] | amount of the compound dissolved in 100 g of organic solvent ([1]; toluene) [g] | amount of the compound dissolved in 100 g of organic solvent ([2]; cyclopentyl methyl ether) [g] | amount of the compound dissolved in 100 g of organic solvent ([2]; ethyl acetate) [g] | amount of the compound dissolved in 100 g of organic solvent ([2]; toluene) [g] | solubility as compared to the compound in Reference Synthesis Example 3 [1] | solubility as compared to the compound in Reference Synthesis Example 3 ([2]; in toluene, cyclopentyl methyl ether, and ethyl acetate)
1 | C[Si](C)(C)CCOC(=O)[C@H](Cc1ccccc1)NC(=O)[C@H](Cc1ccccc1)NC(=O)OCC1c2ccccc2-c2ccccc21 [Reference Synthesis Example 3, Fmoc-Phe-Phe-OTMSE, reference compound] | 1.4 | 4.5 | 0.87 | 1.4 | 4.5 | 0.87 | – | –
2 | CCCCCCCCCCCCCCCCCC[Si](C)(C)CCOC(=O)[C@H](Cc1ccccc1)NC(=O)[C@H](Cc1ccccc1)NC(=O)OCC1c2ccccc2-c2ccccc21 [Synthesis Example 6, Fmoc-Phe-Phe-ODMSE] | 41 | 8.4 | 38 | – | – | – | improved | –
3 | CC(CCC(COCCC[Si](CCOC(=O)[C@H](Cc1ccccc1)NC(=O)[C@H](Cc1ccccc1)NC(=O)OCC1c2ccccc2-c2ccccc21)(c1ccccc1)c1ccccc1)C(C)CC(C)(C)C)CC(C)(C)C (stereo partly drawn) [Synthesis Example 8, Fmoc-Phe-Phe-OFPSE] | – | – | – | >140 | >140 | >140 | – | improved
4 | CC[Si](CC)(CCCOCC(CCC(C)CC(C)(C)C)C(C)CC(C)(C)C)CCOC(=O)[C@H](Cc1ccccc1)NC(=O)[C@H](Cc1ccccc1)NC(=O)OCC1c2ccccc2-c2ccccc21 (stereo partly drawn) [Synthesis Example 2, Fmoc-Phe-Phe-OFESE] | 111 | 97 | 116 | – | – | – | improved | –
